# Literature values as cited in patent US7879371B2 (priority 2002, dated 2011).
# Read-outs that look alike come from different tables or passages of the source.
# Columns and labels:
# [1] = test system: A. tumefaciens nopaline type strains T37 and C58
# [2] = test system: A. tumefaciens str. A348 (pSM358) virE::lacZ
# [3] = test system: A. tumefaciens vir genes, strain A348 (pSM243cd); conditions: for vir gene induction efficiency versus corresponding phenolic acids: strain A348 (pSM243cd), only above 100 μM
# [4] = cultures of strains C58F and T37
compound,measurement,setting,value
COc1cc(C=CC(=O)O)cc(OC)c1O (stereo in doubt) [sinapinic acid],growth of A. tumefaciens strains,[1]; [4],inhibited growth
COc1cc(C(C)=O)cc(OC)c1O[C@H]1O[C@@H](C)[C@@H](O)[C@@H](O)[C@@H]1O [Acetosyringonyl beta-L-fucopyranoside],vir-inducing activity,[2]; 13 synthetic beta-glycosides compared,most active monoglycoside tested
same,toxic effects,[2]; even at high concentrations,devoid of toxic effects
COc1cc(C(C)=O)cc(OC)c1O [acetosyringone],growth of A. tumefaciens strains,[1],inhibited the growth
COc1cc(C=O)cc(OC)c1O[C@@H]1O[C@H](CO)[C@@H](O[C@H]2O[C@H](CO)[C@@H](O)[C@H](O)[C@H]2O)[C@H](O)[C@H]1O [beta-maltoside of syringaldehyde],vir-inducing activity versus free phenol,[2]; at high concentrations,higher activity than the free phenol
CCNC(=O)/C=C/c1ccc(O)c(OC)c1 [ethylferulamide],vir gene induction efficiency versus corresponding phenolic acids,[3],more efficient than the corresponding phenolic acids
CCNC(=O)/C=C/c1cc(OC)c(O)c(OC)c1 [ethylsinapamide],vir gene induction efficiency versus corresponding phenolic acids,[3],more efficient than the corresponding phenolic acids
CCNC(=O)c1cc(OC)c(O)c(OC)c1 [ethylsyringamide],vir gene induction activity versus acetosyringone,[3]; concentrations above 1 mM,higher activity than acetosyringone
COc1cc(C=O)cc(OC)c1O [syringaldehyde],growth of A. tumefaciens strains,[1]; [4],inhibited growth
